Experimental data as given in publication PMC6750704 (Journal of medicinal chemistry, 2019).

System: paradoxical MEK/ERK pathway activation in NRAS Q61K Sbcl2 melanoma cells
Assay: Vemurafenib induced paradoxical MEK/ERK activation, Western blotting
Assay type: cell-based, human
Conditions: 1 μM, control peptide treated Sbcl2 cells

**Q.** CCCS(=O)(=O)Nc1ccc(F)c(C(=O)c2c[nH]c3ncc(-c4ccc(Cl)cc4)cc23)c1F [vemurafenib] was tested. Which “effect on pMEK and pERK levels” value did it give?
**A.** induces paradoxical MEK/ERK pathway activation
